Measurements published in PubChem BioAssay (NCI).
Converted amounts (≈) assume the structure as drawn. “And” between values parts separate entries of the source, which are not always exact repeats. Identical values can stand only once.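 96-well plates; 48 h exposure; 5 concentrations. Endpoints by linear interpolation between flanking doses. Not reached: highest tested concentration assigned. GI50 is the concentration that inhibits growth by half. TGI: concentration producing complete growth inhibition.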

Legend:
Assay in all cases: inhibition of tumour cell growth, NCI panel, 48 h
[1] = tested on: DLD-1 colon
[2] = tested on: DMS 273 small cell lung
[3] = tested on: HOP-18 NSCLC
[4] = tested on: LXFL 529 NSCLC
[5] = tested on: M19-MEL melanoma
[6] = tested on: RXF-631 renal
[7] = tested on: XF 498 CNS
[8] = tested on: KM20L2 colon
[9] = tested on: MDA-N

Row | Compound | TGI [1] | TGI [2] | TGI [3] [µM] | TGI [4] | TGI [5] | TGI [6] [µM] | TGI [7] | TGI [8] | GI50 [9] [µg/mL] | TGI [9] | GI50 [4] | GI50 [5] | GI50 [7]
1 | [N-]=[N+]=NC12CC3C4CC5CC3C(C1)C(C5)C4C2 | > 100 µM | > 100 µM | > 100 | > 100 µM | > 100 µM | > 100 | > 100 µM | – | – | – | – | – | –
2 | O=[N+]([O-])c1ccc(C2=Nn3cnnc3SC2)o1 | 41.4 µM | 36.3 µM | – | 26.4 µM | 13.8 µM | 28.1 | 30.2 µM | – | – | – | – | – | –
3 | COC1(OC)CC2C(=O)N(Cc3ccccc3)C1C(S(=O)(=O)c1ccccc1)C2S(=O)(=O)c1ccccc1 (configuration not stated) | 13.3 µM | 27.7 µM | 31 | 12.1 µM | 23.8 µM | 32.6 | – | 31.4 µM | – | – | – | – | –
4 | COc1cc(N(CCC#N)CCC#N)ccc1/C(N=Nc1ccc([N+](=O)[O-])cc1)=N/NC(=O)c1cc(Br)ccc1O | – | – | – | – | – | – | – | – | 43.8 (≈ 70.7 µM) | 126 µg/mL | – | – | –
5 | CC(=O)c1cccc(NC(=O)C(=O)NNc2n[nH]c(=S)n2N)c1 | 31.6 µM | 18.7 µM | 24.2 | 22.5 µM | 2.36 µM | 10.9 | 25.7 µM | 46.1 µM | – | 3.8 µM | – | – | –
6 | Cc1nn(-c2ccccc2)c2nc(N3CCOCC3)nnc12 | > 100 µM | > 100 µM | – | > 100 µM | > 100 µM | > 100 | > 100 µM | > 100 µM | – | – | – | – | –
7 | CCCCC(C(=O)C(=O)NC1C2CC3CC(C2)CC1C3)C(=O)C(C)C (configuration not stated) | – | > 100 µM | > 100 | > 100 µM | > 100 µM | > 100 | > 100 µM | > 100 µM | – | – | – | – | –
8 | O=C(O)CCC(=O)c1ccc[nH]1 | – | – | – | – | – | – | – | – | – | > 100 µM | – | – | –
9 | COc1ccc2c3c([nH]c2c1[N+](=O)[O-])C(C)=NCC3 | > 100 µM | > 100 µM | – | > 100 µM | – | > 100 | – | > 100 µM | – | – | – | – | –
10 | CNC(=O)N(C)N=NCCCl | > 100 µM | > 100 µM | – | > 100 µM | > 100 µM | – | – | > 100 µM | – | > 100 µM | – | – | –
11 | O=S1(=O)C[C@H](O)[C@H](O)CS1 | > 100 µM | > 100 µM | > 100 | > 100 µM | > 100 µM | – | > 100 µM | > 100 µM | – | – | – | – | –
12 | COC(=O)C1=C(O)c2cc(OC)c(OC)cc2C(c2ccc(OC)c(OC)c2)C1 (configuration not stated) | > 100 µM | > 100 µM | > 100 | > 100 µM | > 100 µM | > 100 | > 100 µM | > 100 µM | – | – | – | – | –
13 | CC(C)N(C(=O)C12C3C4C5(C#N)C3C1(C#N)C5C42I)C(C)C (configuration not stated) | > 60.9 µM | > 60.9 µM | > 100 | > 100 µM | > 100 µM | > 100 | > 100 µM | > 100 µM | – | – | – | – | –
14 | CC(C)(C)CC(C)(C)c1cc2c(O)c(c1)Cc1cc(C(C)(C)CC(C)(C)C)cc(c1O)Cc1cc(C(C)(C)CC(C)(C)C)cc(c1O)Cc1cc(C(C)(C)CC(C)(C)C)cc(c1O)C2 | > 100 µM | > 100 µM | – | > 100 µM | > 100 µM | > 100 | > 100 µM | > 100 µM | – | – | – | – | –
15 | CN(C)/C=N/c1nc2c(ncn2C2OC(CO)C(O)C2O)c(=O)[nH]1 (configuration not stated) | > 100 µM | > 100 µM | > 100 | > 100 µM | > 100 µM | > 100 | > 100 µM | > 100 µM | – | – | – | – | –
16 | S=C1NC2(CCCCCC2)NN1c1ccccc1 | > 100 µM | – | > 100 | – | – | > 100 | – | – | – | > 100 µM | – | – | –
17 | CC1=NNC(=O)C2CCC(=O)N12 (configuration not stated) | > 100 µM | > 100 µM | > 100 | > 100 µM | > 100 µM | > 100 | – | > 100 µM | – | – | – | – | –
18 | N#Cc1nc(Nc2cccc3ccccc23)sc1N | > 100 µM | > 100 µM | – | > 100 µM | > 100 µM | – | > 100 µM | > 100 µM | – | – | – | – | –
19 | Cc1cc([N+](=O)[O-])ccc1Nc1cccc(Cl)c1C | 33.5 µM | 28.5 µM | 29.6 | 28.3 µM | 30.6 µM | 31.3 | – | 29.8 µM | – | – | – | – | –
20 | C=COCCCOc1ccccc1 | > 100 µM | > 100 µM | > 100 | > 100 µM | > 100 µM | – | > 100 µM | > 100 µM | – | – | – | – | –
21 | O=C1c2cccc(NCCCNCCO)c2C(=O)c2cccc(NCCCNCCO)c21 | 12 µM and 6.25 µM | 3.98 µM and 5.13 µM | 7.69 | 2.95 µM and 10.1 µM | 2.24 µM and 3.72 µM | – | 2.4 µM and 7.26 µM | 6.72 µM and 9.95 µM | – | 3.23 µM | 0.844 µM and 2.22 µM | 0.712 µM and 1.8 µM | 0.827 µM and 2.41 µM
